According to article PMC8162404, “Proteomimetic surface fragments distinguish targets by function” (Chemical Science, 2020):

Key:
RecQ-WH = biological target: T1, RecQ-WH (Escherichia coli, UniProt P15043); test: Pull-down assay with immobilized protein and LSM libraries; design: species or system E. coli; conditions: H14 library; 1:1 binding assumed; read-out: Surface mapping KD (apparent)
T1 construct: coding for residues 408– 523 of E. coli RecQ; made in house; host or cells: E. coli BL21(DE3)
Protocol: Pull-down assays with immobilized test proteins and foldameric LSM libraries were carried out. Proteins were equilibrated with LSM probes, and equilibrium bound fractions (FB) were determined from the unbound fractions measured by HPLC-MS methods. Hits were corrected with background binding of the resin. The protocol allowed all binding events to equilibrate irrespective of affinity, specificity, and binding kinetics. This was essential to judge overall druggability and promiscuity. Importantly, the concentration of protein and the total concentration of foldameric LSMs were equimolar, which minimized competition between the probes. This experimental setup approximated independent binding of individual library members. Results were visualized as heat maps of dissociation constants (Fig. 3).
Pull-down assay and data analysis
Pull-down assay. LSM sublibraries were screened separately as previously described.(2) Experiments were performed in the following buffers: (i) 20 mM pH 7.4 HEPES, 150 mM NaCl, 5 mM CaCl2 for CaM; (ii) 50 mM pH 7.4 HEPES, 150 mM NaCl, 1 mM TCEP, 1 mM CaCl2 for S100 proteins; (iii) 20 mM pH 7.4 HEPES, 150 mM NaCl, 1 mM TCEP for Gal-1 and (iv) 20 mM pH 7.4 HEPES, 150 mM NaCl for RecQ-WH. Assays were performed in paper filter spin cups (Thermo Scientific) with sample volumes of 100 µl. Hexahistidine-tagged proteins were immobilized on previously washed Co-NTA resin (TALON, Takara Bio USA, Inc., Mountain View, CA) in 64 µM final concentration. LSM sublibrary was added, in which each of the 64 library members were used at a concentration of 1 µM. Samples were incubated at room temperature for 30 min with shaking at 100 rpm. Then, samples were centrifuged at 1000 rpm for 2 min and washed with 100 µl pull-down buffer to remove unbound compounds.
The control experiments were performed using the same compounds and the resin but without the immobilized protein. In case of competitive assays, competitor peptides were added to LSM sublibrary samples in 200 µM final concentration. In the case of Gal-1, lactose (competitor) was used in a concentration of 10 mM. Experiments were performed at least twice. Mean […]
LC-MS methods and parameters. HPLC/ESI-MS analysis was used to characterize the samples from the pull-down assay. LC-MS analysis was performed with a Thermo Scientific Dionex UltiMate 3000 HPLC system interfaced to an LTQ ion trap mass spectrometer (Thermo Electron Corp., San Jose, CA, USA). Samples were injected onto an Aeris Widepore XB-C18 (250 x 4.6 mm) analytical HPLC column using gradient elution 5-80 % solution B during 25 minutes. For pull-down samples, eluent composition was 0.1% acetic acid in distilled water (Solution A) and 0.1% acetic acid in acetonitrile (solution B). Mass spectra were acquired in full scan mode from 200 to 2000 m/z range. For overlapping peaks, selective reaction monitoring (SRM) was […]
MS data analysis. Thermo Xcalibur 2.2 software was used for peak identification and integration. The majority of the foldameric fragments could be resolved independently via HPLC-MS/MS measurements based on molecular weight, MS fragmentation pattern and retention time. Peaks of some foldamers with β3-hIle or β3-hLeu in position R2 could not be resolved, these were integrated and averaged. In the processing method, each sample component was associated to a chromatographic peak based on previously identified mass (m/z) and retention time (ref (2) and Table S7-10). Using ICIS peak detection algorithm, the general detection and integration criteria were: smoothing points: 5, baseline window: 80, area noise factor: 5, peak noise factor: 10. Using these processing setups, all raw data files were reprocessed together and analyzed. Errors in peak identification during the automatic processing were corrected manually.
Calculation of the discussed parameters
1. Bound fractions (FB.) were calculated from the HPLC-MS intensity loss of the LSM probes compared to the control where no protein was immobilized to the resin: […]

Gal-1 [1] = biological target: T2, Gal-1 (Homo sapiens, UniProt P09382); test: Competition pull-down with lactose; type: binding; conditions: H14 library; lactose 10 mM; read-out: Surface mapping KD (apparent), competition
T2 construct: made in house; host or cells: E. coli BL21(DE3)
In short: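 His6-tagged proteins immobilized on Co-NTA resin at 64 µM final with 64-member LSM foldamer sublibraries (1 M each, as printed) in pH 7.4 HEPES/NaCl buffers (Ca2+/TCEP per target), 30 min RT; competitor peptides 200 µM final, lactose 10 mM for Gal-1. Bound fractions from LC-MS loss vs protein-free resin; KD assuming 1:1 binding.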

S100B = biological target: T3, S100B (Homo sapiens, UniProt P04271); test: Pull-down assay with immobilized protein and LSM libraries; type: binding; conditions: for Kd: H14 library, 1:1 binding assumed, read-out: Surface mapping KD (apparent); for Affinity class of probe (high, medium, low) in pull-down: H14 probes selected for validation
T3 construct: made in house; host or cells: Escherichia coli BL21(DE3)
T3 sequence (P04271 1-92): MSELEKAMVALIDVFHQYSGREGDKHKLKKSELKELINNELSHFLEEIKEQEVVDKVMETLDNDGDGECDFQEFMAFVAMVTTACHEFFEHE
In short: (§1)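 Buffers were HEPES pH 7.4 with 150 mM NaCl, plus 1 mM TCEP and 1 mM CaCl2 (50 mM HEPES) for S100A4 and S100B, 1 mM TCEP for Gal-1, and no additive for RecQ-WH. Immobilized protein at 64 µM was equilibrated 30 min with the LSM sublibrary, and unbound probes were measured by LC-MS.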

CaM [2] = biological target: T4, CaM (Bos taurus, UniProt P62157); test: Competition pull-down with native ligand TRPV1-Ct15; type: binding, bovine; conditions: H14 library; competitor peptide 200 µM; read-out: Surface mapping KD (apparent), competition
T4 construct: made in house; host or cells: E. coli BL21 (DE3)

CaM [3] = biological target: T4, CaM; test: Pull-down assay with immobilized protein and LSM libraries; type: binding, bovine; conditions: H14 library; 1:2 stoichiometry assumed; read-out: Surface mapping KD (apparent)
In short: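 His-tagged protein immobilized on Co-NTA resin, equilibrated 30 min at room temperature with LSM sublibraries (64 members, […]), equimolar protein to total probe. CaM buffer: 20 mM HEPES pH 7.4, 150 mM NaCl, 5 mM CaCl2. Bound fractions from HPLC-MS loss of unbound probe versus protein-free resin control; Kd derived.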

S100A4 = biological target: T5, S100A4 (Homo sapiens, UniProt P26447); test: as above; type: binding; conditions: for Kd: H14 library, 1:1 binding assumed, read-out: Surface mapping KD (apparent); for Affinity class of probe (high, medium, low) in pull-down: H14 probes selected for validation
T5 construct: made in house; host or cells: Escherichia coli BL21(DE3)
In short: as §1

Gal-1 [4] = biological target: T2, Gal-1; test: as above; type: binding; conditions: H14 library; 1:1 binding assumed; read-out: Surface mapping KD (apparent)
In short: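 His-tagged protein immobilized on Co-NTA resin (64 µM) in 20 mM HEPES pH 7.4, 150 mM NaCl, equilibrated 30 min at room temperature with foldamer LSM sublibraries at equimolar total concentration. Unbound fractions quantified by HPLC-MS versus protein-free resin control; apparent KD assumes 1:1 binding.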

T1 sequence (P15043 408-523): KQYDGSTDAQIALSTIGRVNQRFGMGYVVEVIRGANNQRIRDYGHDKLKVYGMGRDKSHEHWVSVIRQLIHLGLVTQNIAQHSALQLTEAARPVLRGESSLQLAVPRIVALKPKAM
T2 sequence (P09382 whole entry): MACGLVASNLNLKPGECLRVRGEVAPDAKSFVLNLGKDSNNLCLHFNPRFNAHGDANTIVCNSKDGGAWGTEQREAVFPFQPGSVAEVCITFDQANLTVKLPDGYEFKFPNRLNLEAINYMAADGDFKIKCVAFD
T5 sequence (P26447 whole entry): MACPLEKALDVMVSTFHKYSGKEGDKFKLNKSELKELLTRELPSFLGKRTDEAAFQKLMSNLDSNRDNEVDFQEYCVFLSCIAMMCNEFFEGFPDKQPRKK

Compound | Kd (RecQ-WH) | Kd (Gal-1 [1]) | Kd (S100B) | Kd (CaM [2]) | Kd (CaM [3]) | Kd (S100A4) | Kd (Gal-1 [4]) | Affinity class of probe (high, medium, low) in pull-down (S100A4) | Affinity class of probe (high, medium, low) in pull-down (S100B) | Binding (S100A4; H14 probes) | Binding (S100B; H14 probes)
CC[C@H](C)[C@@H](CC(=O)N[C@H]1CCCC[C@@H]1C(N)=O)NC(=O)[C@H]1CCCC[C@@H]1NC(=O)[C@H]1CCCC[C@@H]1NC(=O)C[C@H](CC(=O)O)NC(=O)[C@H]1CCCC[C@@H]1N [H14 DI] | 429 µM | 408 µM |  |  |  |  |  |  |  |  | 
NCCCC[C@@H](CC(=O)N[C@H]1CCCC[C@@H]1C(N)=O)NC(=O)[C@H]1CCCC[C@@H]1NC(=O)[C@H]1CCCC[C@@H]1NC(=O)C[C@H](CC(=O)O)NC(=O)[C@H]1CCCC[C@@H]1N [H14 DK] | 314 µM | 405 µM | 144 µM |  |  |  |  |  |  |  | 
CC(C)C[C@@H](CC(=O)N[C@H]1CCCC[C@@H]1C(N)=O)NC(=O)[C@H]1CCCC[C@@H]1NC(=O)[C@H]1CCCC[C@@H]1NC(=O)C[C@H](CC(=O)O)NC(=O)[C@H]1CCCC[C@@H]1N [H14 DL] | 429 µM | 408 µM |  |  |  |  |  |  |  |  | 
NC(=O)[C@H]1CCCC[C@@H]1NC(=O)C[C@H](Cc1c[nH]c2ccccc12)NC(=O)[C@H]1CCCC[C@@H]1NC(=O)[C@H]1CCCC[C@@H]1NC(=O)C[C@H](CC(=O)O)NC(=O)[C@H]1CCCC[C@@H]1N [H14 DW] | 165 µM |  | 200 µM | 439 µM |  |  |  |  |  |  | 
NC(=O)[C@H]1CCCC[C@@H]1NC(=O)C[C@H](Cc1c[nH]c2ccccc12)NC(=O)[C@H]1CCCC[C@@H]1NC(=O)[C@H]1CCCC[C@@H]1NC(=O)C[C@H](CCC(=O)O)NC(=O)[C@H]1CCCC[C@@H]1N [H14 EW] | 212 µM | 458 µM | 305 µM |  |  |  |  |  |  |  | 
N=C(N)NCCC[C@@H](CC(=O)N[C@H]1CCCC[C@@H]1C(N)=O)NC(=O)[C@H]1CCCC[C@@H]1NC(=O)[C@H]1CCCC[C@@H]1NC(=O)C[C@H](CCCCN)NC(=O)[C@H]1CCCC[C@@H]1N [H14 KR] | 486 µM | 323 µM | 22 µM | 249 µM | 22 µM |  |  |  |  |  | 
CC(C)[C@@H](CC(=O)N[C@H]1CCCC[C@@H]1C(N)=O)NC(=O)[C@H]1CCCC[C@@H]1NC(=O)[C@H]1CCCC[C@@H]1NC(=O)C[C@H](CCCCN)NC(=O)[C@H]1CCCC[C@@H]1N [H14 KV] | 442 µM |  | 102 µM | 376 µM | 50 µM | 71 µM |  |  |  |  | 
CSCC[C@@H](CC(=O)N[C@H]1CCCC[C@@H]1C(=O)N[C@H]1CCCC[C@@H]1C(=O)N[C@@H](CCCNC(=N)N)CC(=O)N[C@H]1CCCC[C@@H]1C(N)=O)NC(=O)[C@H]1CCCC[C@@H]1N [H14 MR] | 457 µM | 310 µM | 92 µM |  | 19 µM | 247 µM | 395 µM |  |  |  | 
C[C@@H](CC(=O)N[C@H]1CCCC[C@@H]1C(N)=O)NC(=O)[C@H]1CCCC[C@@H]1NC(=O)[C@H]1CCCC[C@@H]1NC(=O)C[C@H](CCCNC(=N)N)NC(=O)[C@H]1CCCC[C@@H]1N [H14 RA] | 456 µM |  | 188 µM | 449 µM | 111 µM |  |  |  |  |  | 
N=C(N)NCCC[C@@H](CC(=O)N[C@H]1CCCC[C@@H]1C(=O)N[C@H]1CCCC[C@@H]1C(=O)N[C@H](CC(=O)N[C@H]1CCCC[C@@H]1C(N)=O)Cc1ccccc1)NC(=O)[C@H]1CCCC[C@@H]1N [H14 RF] | 231 µM |  | 16 µM | 350 µM | 4 µM | 65 µM |  | medium | high |  | 
CSCC[C@@H](CC(=O)N[C@H]1CCCC[C@@H]1C(N)=O)NC(=O)[C@H]1CCCC[C@@H]1NC(=O)[C@H]1CCCC[C@@H]1NC(=O)C[C@H](CCCNC(=N)N)NC(=O)[C@H]1CCCC[C@@H]1N [H14 RM] | 294 µM |  | 79 µM |  | 30 µM | 94 µM |  |  |  |  | 
N=C(N)NCCC[C@@H](CC(=O)N[C@H]1CCCC[C@@H]1C(N)=O)NC(=O)[C@H]1CCCC[C@@H]1NC(=O)[C@H]1CCCC[C@@H]1NC(=O)C[C@H](CCCNC(=N)N)NC(=O)[C@H]1CCCC[C@@H]1N [H14 RR] | 355 µM |  | 18 µM | 103 µM | 10 µM |  |  | low | high | does not | binds
N=C(N)NCCC[C@@H](CC(=O)N[C@H]1CCCC[C@@H]1C(=O)N[C@H]1CCCC[C@@H]1C(=O)N[C@H](CC(=O)N[C@H]1CCCC[C@@H]1C(N)=O)Cc1c[nH]c2ccccc12)NC(=O)[C@H]1CCCC[C@@H]1N [H14 RW] | 201 µM |  | 13 µM |  | 0.6 µM | 56 µM |  |  |  |  | 
NC(=O)[C@H]1CCCC[C@@H]1NC(=O)C[C@H](Cc1ccccc1)NC(=O)[C@H]1CCCC[C@@H]1NC(=O)[C@H]1CCCC[C@@H]1NC(=O)C[C@H](CO)NC(=O)[C@H]1CCCC[C@@H]1N [H14 SF] | 182 µM | 312 µM | 105 µM |  | 30 µM | 71 µM | 267 µM |  |  |  | 
NC(=O)CC[C@@H](CC(=O)N[C@H]1CCCC[C@@H]1C(N)=O)NC(=O)[C@H]1CCCC[C@@H]1NC(=O)[C@H]1CCCC[C@@H]1NC(=O)C[C@H](Cc1c[nH]c2ccccc12)NC(=O)[C@H]1CCCC[C@@H]1N [H14 WQ] | 473 µM |  | 161 µM | 495 µM | 16 µM | 191 µM |  |  |  |  | 
NCCCC[C@@H](CC(=O)N[C@H]1CCCC[C@@H]1C(N)=O)NC(=O)[C@H]1CCCC[C@@H]1NC(=O)[C@H]1CCCC[C@@H]1NC(=O)C[C@H](Cc1ccc(O)cc1)NC(=O)[C@H]1CCCC[C@@H]1N [H14 YK] | 411 µM |  | 89 µM |  | 17 µM | 146 µM |  |  |  |  | 
